The text below walks through data of patent US20230295106A1 (priority 2019, published 2023).

The IC50 is the concentration that inhibits the measured activity by half.

For test [1], the target named is T1, 5-HT2C edited (accession number AAF35842.1) (Homo sapiens, UniProt P28335, I156V/I160V/N158S). Nature of the test: cell-based. To be noted: 5-HT2C IPOne Agonism Activity.
Target sequence in this assay (P28335 whole entry I156V/N158S/I160V, looked up): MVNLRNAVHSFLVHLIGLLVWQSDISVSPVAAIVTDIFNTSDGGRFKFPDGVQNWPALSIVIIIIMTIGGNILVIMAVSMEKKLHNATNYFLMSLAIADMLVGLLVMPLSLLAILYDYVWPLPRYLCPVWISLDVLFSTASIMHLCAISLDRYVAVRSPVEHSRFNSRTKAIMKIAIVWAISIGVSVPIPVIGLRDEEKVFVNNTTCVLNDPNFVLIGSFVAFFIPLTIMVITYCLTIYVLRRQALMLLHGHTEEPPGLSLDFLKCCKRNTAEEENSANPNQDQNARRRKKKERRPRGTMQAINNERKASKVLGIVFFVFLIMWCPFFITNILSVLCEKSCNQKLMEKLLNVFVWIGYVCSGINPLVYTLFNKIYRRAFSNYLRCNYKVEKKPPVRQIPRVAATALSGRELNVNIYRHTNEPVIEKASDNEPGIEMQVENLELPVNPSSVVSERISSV
In test [2] the target is T1, 5-HT2C edited (accession number AAF35842.1). In words: biochemical. The following applies: 5-HT2C Radioligand Binding Activity.
Target sequence in this assay (P28335 33-458 I156V/N158S/I160V limits assumed): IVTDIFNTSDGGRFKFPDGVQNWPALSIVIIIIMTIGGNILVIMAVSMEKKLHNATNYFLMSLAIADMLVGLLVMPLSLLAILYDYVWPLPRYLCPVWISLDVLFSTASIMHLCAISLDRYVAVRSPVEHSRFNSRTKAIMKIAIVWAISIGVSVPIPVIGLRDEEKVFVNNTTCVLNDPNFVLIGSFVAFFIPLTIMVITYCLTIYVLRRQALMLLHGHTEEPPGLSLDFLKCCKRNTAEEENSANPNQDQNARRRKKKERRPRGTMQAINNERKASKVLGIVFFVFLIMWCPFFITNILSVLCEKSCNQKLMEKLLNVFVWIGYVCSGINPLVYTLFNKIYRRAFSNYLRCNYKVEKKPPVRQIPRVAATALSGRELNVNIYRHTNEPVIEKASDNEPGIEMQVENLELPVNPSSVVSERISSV
Test [3] addresses human recombinant 5-HT2C edited receptor (accession number AAF35842.1) (Homo sapiens, UniProt P28335, I156V/N158S/I160V). Nature of the test: cell-based. To be noted: read-out: 5-HT2C IPOne Agonism Activity.

Sequence of human recombinant 5-HT2C edited receptor (accession number AAF35842.1) (P28335 whole entry I156V/N158S/I160V, looked up): as the sequence (P28335 whole entry I156V/N158S/I160V, looked up) above

Consider `CCN(CC)C(=O)[C@@H]1C=C(c2cc(OC)cc(OC)c2)CN(C)C1` (single isomer, unassigned) [Compound 5, 5-(3,5-dimethoxyphenyl)-N,N-diethyl-1-methyl-1,2,3,6-tetrahydropyridine-3-carboxamide], for which the EC50 in test [1] was in the range of 0.101 to 1 µM. This compound came in with an IC50 in test [2] of 0.101 to 1 µM.
Turning to `CCN(CC)C(=O)[C@@H]1C=C(c2cc(OC)cc(OC)c2)CN(C)C1` (single isomer, unassigned) [Compound 6, 5-(3,5-dimethoxyphenyl)-N,N-diethyl-1-methyl-1,2,3,6-tetrahydropyridine-3-carboxamide], in test [1], the EC50 was in the range of 1 to 10 µM. The same compound showed an IC50 in test [2] of 1 to 10 µM.
`CCN(CC)C(=O)[C@@H]1C=C(c2ccccc2OC)CN(C)C1` (single isomer, unassigned) [Compound 7, N,N-diethyl-5-(2-methoxyphenyl)-1-methyl-1,2,3,6-tetrahydropyridine-3-carboxamide] yielded an EC50 in test [1] of 0.101 to 1 µM. Besides, in test [2], the half-maximal inhibitory concentration (IC50) is 0.101 to 1 µM.
Regarding `CCN(CC)C(=O)[C@@H]1C=C(c2ccccc2OC)CN(C)C1` (single isomer, unassigned) [Compound 8, N,N-diethyl-5-(2-methoxyphenyl)-1-methyl-1,2,3,6-tetrahydropyridine-3-carboxamide], the EC50 in test [1] was in the range of 1 to 10 µM. This compound had a 50% inhibitory concentration (IC50) in test [2] of 1 to 10 µM.
Consider `CCN(CC)C(=O)[C@@H]1C=C(c2cccc(OC)c2)CN(C)C1` (single isomer, unassigned) [Compound 9, N,N-diethyl-5-(3-methoxyphenyl)-1-methyl-1,2,3,6-tetrahydropyridine-3-carboxamide], for which, in test [1], the EC50 lay within 0.01 to 0.1 µM. Further, the 50% inhibitory concentration (IC50) in test [2] was in the range of 0.01 to 0.1 µM.
`CCN(CC)C(=O)[C@@H]1C=C(c2cccc(OC)c2)CN(C)C1` (single isomer, unassigned) [Compound 10, N,N-diethyl-5-(3-methoxyphenyl)-1-methyl-1,2,3,6-tetrahydropyridine-3-carboxamide] displayed an EC50 in test [1] of 0.101 to 1 µM. The compound also returned an IC50 in test [2] of 0.101 to 1 µM.
Turning to `CN(C)C1Cc2cccc3ccn(c23)C1` (single isomer, unassigned) [Compound 14, N,N-dimethyl-5,6-dihydro-4H-pyrrolo[3,2,1-ij]quinolin-5-amine], in test [1], the EC50 was in the range of 0.101 to 1 µM. In addition, the IC50 in test [2] is 0.01 to 0.1 µM.
`CN(C)C1Cc2cccc3ccn(c23)C1` (single isomer, unassigned) [Compound 15, N,N-dimethyl-5,6-dihydro-4H-pyrrolo[3,2,1-ij]quinolin-5-amine]: the EC50 in test [3] fell in the range of 0.101 to 1 µM. This compound came in with an IC50 in test [2] of 0.101 to 1 µM.
`NC1Cc2cccc3ccn(c23)C1` (centres unmarked) [Compound 13, 5,6-dihydro-4H-pyrrolo[3,2,1-ij]quinolin-5-amine] returned an EC50 in test [1] of 0.101 to 1 µM. Besides, the half-maximal inhibitory concentration (IC50) in test [2] was in the range of 0.101 to 1 µM.
Compound `CCN(CC)C1Cc2cccc3ccn(c23)C1` (centres unmarked) [Compound 16, N,N-diethyl-5,6-dihydro-4H-pyrrolo[3,2,1-]quinolin-5-amine] showed an EC50 in test [1] of 0.101 to 1 µM. Further, in test [2], the IC50 was 0.101 to 1 µM.
In turn, `NC1Cc2cc(F)cc3ccn(c23)C1` (centres unmarked) [Compound 17, 8-fluoro-5,6-dihydro-4H-pyrrolo[3,2,1-ij]quinolin-5-amine] returned an EC50 in test [1] of 0.101 to 1 µM. Moreover, the IC50 in test [2] fell in the range of 0.101 to 1 µM.
In the case of `NC1Cc2c(F)ccc3ccn(c23)C1` (centres unmarked) [Compound 19, 7-fluoro-5,6-dihydro-4H-pyrrolo[3,2,1-ij]quinolin-5-amine], in test [1], the EC50 was in the range of 0.101 to 1 µM. This compound registered an IC50 in test [2] of 0.101 to 1 µM.
As to `NC1Cc2cc(Cl)cc3ccn(c23)C1` (centres unmarked) [Compound 21, 8-chloro-5,6-dihydro-4H-pyrrolo[3,2,1-ij]quinolin-5-amine], in test [1], the EC50 was 0.101 to 1 µM. Further, the IC50 in test [2] was in the range of 0.101 to 1 µM.
With `NC1Cc2c(Cl)ccc3ccn(c23)C1` (centres unmarked) [Compound 23, 7-chloro-5,6-dihydro-4H-pyrrolo[3,2,1-ij]quinolin-5-amine], in test [1], the EC50 was 0.101 to 1 µM. The compound also returned an IC50 in test [2] of 0.101 to 1 µM.
`COc1cc2c3c(ccn3CC(N)C2)c1` (centres unmarked) [Compound 25, 8-methoxy-5,6-dihydro-4H-pyrrolo[3,2,1-ij]quinolin-5-amine]: the EC50 in test [1] is 1 to 10 µM. The compound also registered an IC50 in test [2] of 1 to 10 µM.
In the case of `NC1Cc2cccc3[nH]cc(c23)C1` (centres unmarked) [Compound 27, 1,3,4,5-tetrahydrobenzo[cd]indol-4-amine], the EC50 in test [1] was in the range of 0.101 to 1 µM. This compound yielded an IC50 in test [2] of 0.101 to 1 µM.
